Converted amounts (≈) assume the structure as drawn. Where two headings read alike, the source gives them in different places.
Key:
[1] = ester bond, chlorobenzene, 1.0 mM, 150.0 °C, 16.0 h
[2] = test system: K. pneumoniae ATCC 10031; assay: CLSI broth dilution MIC determination; type: cell-based; settings: Klebsiella pneumoniae, ATCC10031, K. pneumoniae ATCC 10031 (MP-14); read-out: MIC
[3] = test system: S. pyogenes ATCC 19615; assay: CLSI broth dilution MIC determination; type: cell-based; settings: Streptococcus pyogenes, ATCC19615, S. pyogenes ATCC 19615 (MP-19); read-out: MIC
[4] = test system: strains of B. subtilis, E. coli, S. aureus, S. pneumoniae, and H. influenzae, including several multidrug-resistant strains; assay: CLSI broth dilution MIC determination, whole panel of strains; type: cell-based; settings: from MIC data, Tables B1-B13
From the text: MIC data was collected for the novel macrolides that this platform has produced against over 21 unique strains of B. subtilis, E. coli, S. aureus, S. pneumoniae, and H. influenzae, including several multidrug-resistant strains, with a special focus on macrolide resistant mechanisms (vide supra). Azithromycin (Azithro) and Solithromycin (Solithro) were included as a control macrolides in many cases. CLSI standard procedures for broth dilution MIC determination were used. […] These genotypes can be constitutive or inducible.

[5] = test system: A. baumannii MP-576 Clinical-MDR; assay: CLSI broth dilution MIC determination; type: cell-based; settings: Acinetobacter baumannii, read-out: MIC
[6] = test system: E. coli MP-541 clinical; assay: CLSI broth dilution MIC determination; type: cell-based; settings: Escherichia coli, MP541CLINICAL, read-out: MIC
Outline: (§1)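 MICs were measured by broth dilution following CLSI standard procedures. Azithromycin and solithromycin served as control macrolides in many cases. Macrolide-resistance genotypes in the panel may be constitutive or inducible.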

[7] = test system: S. aureus MRSA: USA100; assay: CLSI broth dilution MIC determination; type: cell-based; settings: Staphylococcus aureus; S. aureus MRSA: USA100 (MP-618 UNT-096); read-out: MIC
Outline: as §1

[8] = test system: S. pneumoniae mef A genotype (first strain so labelled); assay: CLSI broth dilution MIC determination; type: cell-based; settings: Streptococcus pneumoniae, first strain (MP-626 UNT-038)
Outline: as §1

[9] = test system: S. aureus MRSA: USA300; assay: CLSI broth dilution MIC determination; type: cell-based; settings: Staphylococcus aureus; S. aureus MRSA: USA300 (MP-549, msr(a)); read-out: MIC
Outline: as §1

[10] = test system: E. coli MP-9 ATCC25922:tolC; assay: CLSI broth dilution MIC determination; type: cell-based; settings: Escherichia coli, ATCC25922
Outline: as §1

[11] = test system: E. coli ATCC 25922; assay: CLSI broth dilution MIC determination; type: cell-based; settings: Escherichia coli, ATCC25922, E. coli ATCC 25922 (MP-4); read-out: MIC
Outline: as §1

[12] = test system: S. aureus ATCC 29213; assay: CLSI broth dilution MIC determination; type: cell-based; settings: Staphylococcus aureus, ATCC29213; S. aureus ATCC 29213 (MP-12); read-out: MIC
Outline: as §1

[13] = test system: S. aureus MP-17 ATCCBAA-977 (BAA 977 iErm); assay: CLSI broth dilution MIC determination; type: cell-based; settings: Staphylococcus aureus; S. aureus MP-17, ATCCBAA-977, iErm; read-out: MIC
Outline: as §1

[14] = test system: S. aureus erm A genotype; assay: CLSI broth dilution MIC determination; type: cell-based; settings: Staphylococcus aureus; S. aureus erm A genotype (MP-620 UNT-146); read-out: MIC
Outline: as §1

[15] = test system: S. pneumoniae mef A genotype (second strain so labelled); assay: CLSI broth dilution MIC determination; type: cell-based; settings: Streptococcus pneumoniae, second strain (MP-627 UNT-039), read-out: MIC
Outline: as §1

[16] = test system: S. pneumoniae ATCC 49619; assay: CLSI broth dilution MIC determination; type: cell-based; settings: Streptococcus pneumoniae, ATCC49619, S. pneumoniae ATCC 49619 (MP-21); read-out: MIC
Outline: as §1

[17] = test system: S. aureus USA600, GISA; assay: CLSI broth dilution MIC determination; type: cell-based; settings: Staphylococcus aureus; S. aureus USA600, GISA (MP-619 UNT-120); read-out: MIC
Outline: as §1

[18] = test system: S. aureus (MRSA) MP-513 ST-228 cErm (Clinical-cErm); assay: CLSI broth dilution MIC determination; type: cell-based; settings: Staphylococcus aureus, read-out: MIC
Outline: as §1

[19] = test system: E. coli MP-532 clinical-cErmB; assay: CLSI broth dilution MIC determination; type: cell-based; settings: Escherichia coli
Outline: as §1

[20] = test system: E. faecalis Vancomycin-resistant; assay: CLSI broth dilution MIC determination; type: cell-based; settings: Enterococcus faecalis, E. faecalis Vancomycin-resistant (UNT-039); read-out: MIC
[21] = test system: A. baumannii ATCC 19606; assay: CLSI broth dilution MIC determination; type: cell-based; settings: Acinetobacter baumannii, ATCC19606; A. baumannii ATCC 19606 (MP-15); read-out: MIC
[22] = test system: A. baumannii MP-577 Clinical-AZT low; assay: CLSI broth dilution MIC determination; type: cell-based; settings: Acinetobacter baumannii, read-out: MIC
[23] = test system: S. pyogenes Macrolide-resistant; assay: CLSI broth dilution MIC determination; type: cell-based; settings: Streptococcus pyogenes, S. pyogenes Macrolide-resistant (MP-625 UNT-014); read-out: MIC
[24] = test system: K. pneumoniae MP-548 clinical; assay: CLSI broth dilution MIC determination; type: cell-based; settings: Klebsiella pneumoniae, MP548CLINICAL, read-out: MIC
[25] = test system: P. aeruginosa MP-7 PAO1; assay: CLSI broth dilution MIC determination; type: cell-based; settings: Pseudomonas aeruginosa, read-out: MIC
[26] = test system: P. aeruginosa MP-8 PAO1:mex (mex-oprM-deletion); assay: CLSI broth dilution MIC determination; type: cell-based; settings: Pseudomonas aeruginosa, PAO1
[27] = test system: P. aeruginosa ATCC 27853; assay: CLSI broth dilution MIC determination; type: cell-based; settings: Pseudomonas aeruginosa, ATCC27853; P. aeruginosa ATCC 27853 (MP-3); read-out: MIC
[28] = test system: E. faecalis ATCC 29212; assay: CLSI broth dilution MIC determination; type: cell-based; settings: Enterococcus faecalis, ATCC29212, E. faecalis ATCC 29212 (MP-24); read-out: MIC
[29] = test system: K. pneumoniae MP-546 Clinical-MDR; assay: CLSI broth dilution MIC determination; type: cell-based; settings: Klebsiella pneumoniae, read-out: MIC

CC[C@H]1OC(=O)[C@H](C)C(=O)[C@H](C)[C@@H](O[C@@H]2O[C@H](C)C[C@H](N(C)C)[C@H]2OC(=O)OC)[C@](C)(OC)C[C@@H](C)C(=O)[C@H](C)[C@H]2N(CCCCN=[N+]=[N-])C(=O)O[C@]12C
ring closure, yield of all isomers ([1]; from CC[C@@H](O)[C@@]1(C)OC(=O)N(CCCCN=[N+]=[N-])[C@@H]1[C@@H](C)C(=O)[C@H](C)C[C@@](C)(OC)[C@H](O[C@@H]1O[C@H](C)C[C@H](N(C)C)[C@H]1OC(=O)OC)[C@@H](C)C1=C(C)C(=O)OC(C)(C)O1, none (thermal, dioxinone to acylketene)): 52%

C=C1C(=O)[C@H](C)C[C@@](C)(OC)[C@H](O[C@@H]2O[C@H](C)C[C@H](N(C)C)[C@H]2OC(=O)OC)[C@@H](C)C(=O)C(C)C(=O)O[C@H](CC)[C@@]2(C)OC(=O)N(CCCCN=[N+]=[N-])[C@H]12 (stereo partly drawn)
ring closure, yield of all isomers ([1]; from C=C(C(=O)[C@H](C)C[C@@](C)(OC)[C@H](O[C@@H]1O[C@H](C)C[C@H](N(C)C)[C@H]1OC(=O)OC)[C@@H](C)C1=C(C)C(=O)OC(C)(C)O1)[C@H]1N(CCCCN=[N+]=[N-])C(=O)O[C@]1(C)[C@H](O)CC): 23%

CC[C@H]1OC(=O)[C@@](C)(F)C(=O)[C@H](C)[C@@H](O[C@@H]2OC(C)CC(N(C)C)C2O)[C@](C)(OC)C[C@@H](C)C(=O)[C@H](C)[C@H]2N(CC#CCn3cc(-c4cccc(N)n4)nn3)C(=O)O[C@]12C (stereo partly drawn) [FSM-100573]
MIC [2]: 2 µg/mL (≈ 2.38 µM) | MIC [3]: < 0.03 µg/mL | potency compared with solithromycin [4]: even more potent | MIC [5]: 64 µg/mL (≈ 76 µM) | MIC [6]: 16 µg/mL (≈ 19 µM) | MIC [7]: 16 µg/mL (≈ 19 µM) | MIC [8]: < 0.03 µg/mL | MIC [9]: 0.06 µg/mL (≈ 0.0713 µM) | MIC [10]: 2 µg/mL (≈ 2.38 µM) | MIC [11]: 8 µg/mL (≈ 9.5 µM) | MIC [12]: 0.06 µg/mL (≈ 0.0713 µM) | MIC [13]: 0.06 µg/mL (≈ 0.0713 µM) | MIC [14]: 16 µg/mL (≈ 19 µM) | MIC [15]: < 0.03 µg/mL | MIC [16]: < 0.03 µg/mL | MIC [17]: 16 µg/mL (≈ 19 µM) | MIC [18]: 16 µg/mL (≈ 19 µM) | MIC [19]: 64 µg/mL (≈ 76 µM) | MIC [20]: 1 µg/mL (≈ 1.19 µM) | MIC [21]: 2 µg/mL (≈ 2.38 µM) | MIC [22]: 16 µg/mL (≈ 19 µM) | MIC [23]: < 0.03 µg/mL | MIC [24]: 32 µg/mL (≈ 38 µM) | MIC [25]: 32 µg/mL (≈ 38 µM) | MIC [26]: 4 µg/mL (≈ 4.75 µM) | MIC [27]: 16 µg/mL (≈ 19 µM) | MIC [28]: < 0.03 µg/mL | MIC [29]: 64 µg/mL (≈ 76 µM)

— patent US10633407B2, “14-membered ketolides and methods of their preparation and use” (President and Fellows of Harvard College, priority 2014, dated 2020)
